Calls of active or inactive are those of the source. No cut-off for these calls is given here.

The text below walks through data of ChEMBL document CHEMBL1156858, “Comparative analysis of DNA alkylation by conjugates between pyrrole-imidazole hairpin polyamides and chlorambucil or seco-CBI” (2010).

Assay [1] relates to Nucleic Acid. The assay can be described thus: Induction of DNA alkylation at 3'-side adenines in 5'-AGCAGTCAAAAA-3' site of 5'-Texas Red-modified 209bp DNA fragment at 10 nm to 1 uM after 18 hrs at 23 degC by high-resolution denaturing PAGE. It counts as nucleic-acid assay.
The test system of assay [2] is Nucleic Acid. Kind of assay: Induction of DNA alkylation at 5' side in 5'-AGCAGTC-3' site of 5'-Texas Red-modified 209bp DNA fragment at 10 nm to 1 uM after 18 hrs at 23 degC by high-resolution denaturing PAGE. It counts as nucleic-acid assay.
Assay [3] concerns Nucleic Acid. Kind of assay: Induction of DNA alkylation at 5'-AAAAAAGACTGCT-3' site of 5'-Texas Red-modified 209bp DNA fragment at 10 nm to 1 uM after 18 hrs at 23 degC by high-resolution denaturing PAGE. It counts as nucleic-acid assay.
In another assay the test system is K562. The assay can be described thus: Growth inhibition of human K562 cells after 48 hrs by WST8 dye reduction assay. Format: functional. The note with it: K562, 48 h. (Formazan colour is commonly taken as a measure of viable cells.)
In assay [4] the test system is Nucleic Acid. Kind of assay: Induction of DNA alkylation at 5'-TCTTTTTAA-3' site of 5'-Texas Red-modified 209bp DNA fragment at 10 nm to 1 uM after 18 hrs at 23 degC by high-resolution denaturing PAGE. It counts as nucleic-acid assay.

As a reminder, the GI50 is the concentration at which growth is held to half of that of the control. For `CC(=O)Nc1cn(C)c(C(=O)Nc2cc(C(=O)Nc3cc(C(=O)NCCC(=O)Nc4cn(C)c(C(=O)Nc5cc(C(=O)N[C@H](CCNC(=O)CCCc6ccc(N(CCCl)CCCl)cc6)C(=O)Nc6cnc(C(=O)Nc7cc(C(=O)NCCC(=O)Nc8cn(C)c(C(=O)Nc9cc(C(=O)Nc%10cc(C(=O)NCCCN(C)C)n(C)c%10)n(C)c9)n8)n(C)c7)n6C)n(C)c5)n4)n(C)c3)n(C)c2)n1`, the result in the assay with Nucleic Acid [1] and in the assay on Nucleic Acid [2] was Active. Also, the result with Nucleic Acid [3] was inactive. Further, the GI50 in the assay on K562 was over 10 µM.
As to `CC(=O)Nc1cn(C)c(C(=O)Nc2cc(C(=O)Nc3cc(C(=O)NCCC(=O)Nc4cn(C)c(C(=O)Nc5cc(C(=O)NCCCC(=O)Nc6cnc(C(=O)Nc7cc(C(=O)NCCC(=O)Nc8cn(C)c(C(=O)Nc9cc(C(=O)Nc%10cc(C(=O)NCCCN(C)CCCNC(=O)CCCc%11ccc(N(CCCl)CCCl)cc%11)n(C)c%10)n(C)c9)n8)n(C)c7)n6C)n(C)c5)n4)n(C)c3)n(C)c2)n1`, the result in the assay on Nucleic Acid [1] and in the assay on Nucleic Acid [3] was Active. The molecule also yielded a GI50 with K562 of over 2.5 µM.
For `CN(C)CCCNC(=O)c1cc(NC(=O)c2cc(NC(=O)c3nc(NC(=O)CCNC(=O)c4cc(NC(=O)c5ncc(NC(=O)CCCNC(=O)c6cc(NC(=O)c7nc(NC(=O)CCNC(=O)c8cc(NC(=O)c9cc(NC(=O)c%10nc(NC(=O)CCCc%11ccc(N(CCCl)CCCl)cc%11)cn%10C)cn9C)cn8C)cn7C)cn6C)n5C)cn4C)cn3C)cn2C)cn1C`, the outcome in the assay on Nucleic Acid [1] and in the assay on Nucleic Acid [4] was Active. Moreover, the outcome with Nucleic Acid [3] was inactive. In the assay on K562, this molecule had a GI50 of over 2.5 µM.
Regarding `CC(=O)Nc1cn(C)c(C(=O)Nc2cc(C(=O)Nc3cc(C(=O)NCCC(=O)Nc4cn(C)c(C(=O)Nc5cc(C(=O)NCCCC(=O)Nc6cn(C)c(C(=O)Nc7cc(C(=O)NCCC(=O)Nc8cn(C)c(C(=O)Nc9ccc%10[nH]c(C(=O)N%11CC(CCl)c%12c%11cc(O)c%11ccccc%12%11)cc%10c9)n8)n(C)c7)n6)n(C)c5)n4)n(C)c3)n(C)c2)n1` (configuration not stated), the outcome in the assay on Nucleic Acid [1] and in the assay with Nucleic Acid [4] was Active. This molecule came in with a GI50 in the assay on K562 of 0.06 µM.
For the molecule `CN(C)CCCNC(=O)c1cc(NC(=O)c2cc(NC(=O)c3nc(NC(=O)CCNC(=O)c4cc(NC(=O)c5ncc(NC(=O)CCCNC(=O)c6cc(NC(=O)c7nc(NC(=O)CCNC(=O)c8cc(NC(=O)c9cc(NC(=O)c%10nc(NC(=O)CCNC(=O)CCCc%11ccc(N(CCCl)CCCl)cc%11)cn%10C)cn9C)cn8C)cn7C)cn6C)n5C)cn4C)cn3C)cn2C)cn1C`, in the assay on Nucleic Acid [1], the result was Active. In the assay with Nucleic Acid [3], the outcome was inactive. For the same molecule, the 50% growth inhibitory concentration (GI50) in the assay with K562 came out at 8 µM.
